pIC50: −log10 of the molar value.
Target: TRPA1 (Homo sapiens, UniProt O75762)
Assay: Determination of TRPA1 activity in vitro (TRPA1 antagonism in vitro), procedure of Wei et al., Anesthesiology 111 (2009) 147-154
Type: cell-based
Excerpt: EXPERIMENT 1: Determination of TRPA1 activity in vitro
The illustrative examples of the present invention were screened for TRPA1 activity according to a procedure described in Wei et al., Anesthesiology 111 (2009) 147-154. Table 1. TRPA1 antagonism in vitro.

Chain of TRPA1 (O75762 whole entry): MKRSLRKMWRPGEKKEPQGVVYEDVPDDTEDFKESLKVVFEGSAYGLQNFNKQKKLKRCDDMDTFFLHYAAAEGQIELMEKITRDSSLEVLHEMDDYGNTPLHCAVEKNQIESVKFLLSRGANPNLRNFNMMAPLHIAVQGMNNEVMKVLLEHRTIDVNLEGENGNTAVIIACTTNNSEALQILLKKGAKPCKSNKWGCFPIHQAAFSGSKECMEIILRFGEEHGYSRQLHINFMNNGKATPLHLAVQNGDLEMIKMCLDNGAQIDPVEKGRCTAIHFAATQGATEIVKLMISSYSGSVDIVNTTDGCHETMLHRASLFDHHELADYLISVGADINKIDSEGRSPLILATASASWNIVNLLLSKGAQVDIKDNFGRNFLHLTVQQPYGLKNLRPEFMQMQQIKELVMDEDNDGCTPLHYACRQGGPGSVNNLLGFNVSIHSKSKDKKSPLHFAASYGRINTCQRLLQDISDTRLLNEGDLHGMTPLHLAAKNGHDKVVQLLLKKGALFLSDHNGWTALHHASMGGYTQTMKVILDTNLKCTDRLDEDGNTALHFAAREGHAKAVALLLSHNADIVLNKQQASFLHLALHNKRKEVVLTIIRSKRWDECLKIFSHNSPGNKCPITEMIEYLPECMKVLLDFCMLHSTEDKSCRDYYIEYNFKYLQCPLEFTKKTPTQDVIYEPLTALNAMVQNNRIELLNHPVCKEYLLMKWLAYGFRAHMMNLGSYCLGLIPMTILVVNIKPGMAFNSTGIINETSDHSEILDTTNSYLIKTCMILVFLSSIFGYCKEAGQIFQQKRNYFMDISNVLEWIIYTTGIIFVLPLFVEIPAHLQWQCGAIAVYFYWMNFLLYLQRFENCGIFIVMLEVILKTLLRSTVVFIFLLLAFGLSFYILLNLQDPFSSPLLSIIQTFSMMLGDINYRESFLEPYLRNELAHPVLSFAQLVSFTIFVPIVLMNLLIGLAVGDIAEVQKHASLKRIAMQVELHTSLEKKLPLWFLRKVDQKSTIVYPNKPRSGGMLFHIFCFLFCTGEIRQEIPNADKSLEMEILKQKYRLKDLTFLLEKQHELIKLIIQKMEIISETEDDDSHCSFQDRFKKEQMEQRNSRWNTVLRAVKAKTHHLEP

Row | SMILES | pIC50
1 | CSCCOc1cccc(CNC(=O)[C@@H]2CCCN2S(=O)(=O)c2ccc(F)cc2)c1 [Example 1, (S)-1-(4-Fluorophenylsulfonyl)-N-(3-(2-(methylthio)ethoxy)benzyl) pyrrolidine-2-carboxamide] | 5.40
2 | CCc1cc(CNC(=O)[C@@H]2CCCN2S(=O)(=O)c2ccc(F)cc2)ccc1C#N [Example 5, (S)-N-(4-cyano-3-ethylbenzyl)-1-(4-fluorophenylsulfonyl)pyrrolidine-2-carboxamide] | 5.01
3 | CCCOc1cccc(CNC(=O)[C@@H]2CCCN2S(=O)(=O)c2ccccc2)c1 [Example 6, (S)-1-(Phenylsulfonyl)-N-(3-propoxybenzyl)pyrrolidine-2-carboxamide] | 5.29
4 | O=C(NCc1cc(OCC(F)(F)F)ccn1)[C@@H]1CCCN1S(=O)(=O)c1ccc(F)cc1 [Example 7, (S)-1-(4-Fluorophenylsulfonyl)-N-((4-(2,2,2-trifluoroethoxy)pyridin-2-yl)methyl)pyrrolidine-2-carboxamide] | 4.76
5 | O=C(NCc1ccc(Br)cc1F)[C@@H]1CCCN1S(=O)(=O)c1ccc(F)cc1 [Example 9, (S)-N-(4-bromo-2-fluorobenzyl)-1-(4-fluorophenylsulfonyl)pyrrolidine-2-carboxamide] | 5.28
6 | O=C(NCc1ccnc(OCCC(F)(F)F)c1)[C@@H]1CCCN1S(=O)(=O)c1cc(F)cc(F)c1 [Example 10, (S)-1-(3,5-Difluorophenylsulfonyl)-N-((2-(3,3,3-trifluoropropoxy)pyridin-4-yl)methyl)pyrrolidine-2-carboxamide] | 4.77
7 | O=C(NCc1ccc(Br)cc1F)[C@@H]1C[C@@H](F)CN1S(=O)(=O)c1ccc(F)cc1 [Example 12, (2S,4R)-N-(4-bromo-2-fluorobenzyl)-4-fluoro-1-(4-fluorophenyl-sulfonyl)pyrrolidine-2-carboxamide] | 4.79
8 | O=C(NCc1cc(F)cc(OC(F)F)c1)[C@@H]1CCCN1S(=O)(=O)c1ccc(F)cc1 [Example 13, (S)-N-(3-(difluoromethoxy)-5-fluorobenzyl)-1-(4-fluorophenylsulfonyl) pyrrolidine-2-carboxamide] | 4.94
9 | COc1cc(Cl)cc(CNC(=O)[C@@H]2CCCN2S(=O)(=O)c2ccc(F)cc2)c1 [Example 16, (S)-N-(3-chloro-5-methoxybenzyl)-1-(4-fluorophenylsulfonyl) pyrrolidine-2-carboxamide] | 5.27
10 | O=C(NCc1cccc(C(F)(F)F)c1)[C@@H]1CCCN1S(=O)(=O)c1ccccc1 [Example 24, (S)-1-(Phenylsulfonyl)-N-(3-(trifluoromethyl)benzyl)pyrrolidine-2-carboxamide] | 4.77
11 | O=C(NCc1cccc(S(F)(F)(F)(F)F)c1)[C@@H]1CCCN1S(=O)(=O)c1ccccc1 [Example 25] | 5.17
12 | O=C(NCc1ccnc(OCCC(F)(F)F)c1)[C@@H]1C[C@@H](F)CN1S(=O)(=O)c1ccc(F)cc1 [Example 26, (2S,4R)-4-Fluoro-1-(4-fluorophenylsulfonyl)-N-((2-(3,3,3-trifluoropropoxy)pyridin-4-yl)methyl)pyrrolidine-2-carboxamide] | 4.43
13 | O=C(NCc1cc(C(F)(F)F)ccn1)[C@@H]1CCCN1S(=O)(=O)c1ccc(F)cc1 [Example 27, (S)-1-(4-Fluorophenylsulfonyl)-N-((4-(trifluoromethyl)pyridin-2-yl)methyl)pyrrolidine-2-carboxamide] | 4.47
14 | CC(C)CCOc1cncc(CNC(=O)[C@@H]2CCCN2S(=O)(=O)c2ccc(F)cc2)c1 [Example 28, (S)-1-(4-Fluorophenylsulfonyl)-N-((5-(isopentyloxy)pyridin-3-yl)methyl) pyrrolidine-2-carboxamide] | 5.39
15 | CC(C)COc1ccnc(CNC(=O)[C@@H]2CCCN2S(=O)(=O)c2ccc(F)cc2)c1 [Example 30, (S)-1-(4-Fluorophenylsulfonyl)-N-((4-isobutoxypyridin-2-yl)methyl) pyrrolidine-2-carboxamide] | 4.98
16 | CC(C)CSc1ccnc(CNC(=O)[C@@H]2CCCN2S(=O)(=O)c2ccc(F)cc2)c1 [Example 31, (S)-1-(4-Fluorophenylsulfonyl)-N-((4-(isobutylthio)pyridin-2-yl)methyl) pyrrolidine-2-carboxamide] | 5.07
17 | O=C(NCc1cc(OCC(F)(F)F)ccn1)[C@@H]1CCCN1S(=O)(=O)c1cc(F)cc(F)c1 [Example 33, (S)-1-(3,5-Difluorophenylsulfonyl)-N-((4-(2,2,2-trifluoroethoxy)pyridine-2-yl)methyl)pyrrolidine-2-carboxamide] | 4.73
18 | CCCc1cc(CNC(=O)[C@@H]2C[C@@H](F)CN2S(=O)(=O)c2ccccc2)ccc1C#N [Example 34, (2S,4R)-N-(4-cyano-3-propylbenzyl)-4-fluoro-1-(phenylsulfonyl) pyrrolidine-2-carboxamide] | 4.90

Continued by rising pIC50, values first:

Row | pIC50 | SMILES
19 | 4.59 | O=C(NCc1ccnc(OCCC(F)(F)F)c1)[C@@H]1C[C@@H](F)CN1S(=O)(=O)c1ccc(F)c(F)c1 [Example 14, (2S,4R)-1-(3,4-Difluorophenylsulfonyl)-4-fluoro-N-((2-(3,3,3-trifluoropropoxy)pyridin-4-yl)methyl)pyrrolidine-2-carboxamide]
20 | 4.62 | O=C(NCc1cc(F)cc(OC(F)F)c1)[C@@H]1C[C@@H](F)CN1S(=O)(=O)c1ccc(F)cc1 [Example 18, (2S,4R)-N-(3-(difluoromethoxy)-5-fluorobenzyl)-4-fluoro-1-(4-fluorophenylsulfonyl)pyrrolidine-2-carboxamide]
21 | 4.73 | O=C(NCc1cccc(Br)c1)[C@@H]1CCCN1S(=O)(=O)c1ccccc1 [Example 2, (S)-N-(3-bromobenzyl)-1-(phenylsulfonyl)pyrrolidine-2-carboxamide]
22 | 4.76 | CC(C)CSc1cc(CNC(=O)[C@@H]2C[C@@H](F)CN2S(=O)(=O)c2ccc(F)cc2)ccn1 [Example 36, (2S,4R)-4-Fluoro-1-(4-fluorophenylsulfonyl)-N-((2-(isobutylthio)pyridin-4-yl)methyl)pyrrolidine-2-carboxamide]
23 | 4.81 | CC(C)Nc1cc(CNC(=O)[C@@H]2C[C@@H](F)CN2S(=O)(=O)c2ccccc2)ccc1Cl [Example 21, (2S,4R)-N-(4-chloro-3-(isopropylamino)benzyl)-4-fluoro-1-(phenylsulfonyl)pyrrolidine-2-carboxamide]
24 | 4.84 | O=C(NCc1ccc(C(F)(F)F)cc1)[C@@H]1C[C@@H](F)CN1S(=O)(=O)c1ccc(F)cc1 [Example 8, (2S,4R)-4-Fluoro-1-(4-fluorophenylsulfonyl)-N-(4-(trifluoromethyl)benzyl)pyrrolidine-2-carboxamide]
25 | 4.87 | O=C(NCc1cccc(C2CC2)c1)[C@@H]1CCCN1S(=O)(=O)c1ccccc1 [Example 22, (S)-N-(3-cyclopropylbenzyl)-1-(phenylsulfonyl)pyrrolidine-2-carboxamide]
26 | 4.87 | CC(C)CCOc1cncc(CNC(=O)[C@@H]2C[C@@H](F)CN2S(=O)(=O)c2ccc(F)cc2)c1 [Example 29, (2S,4R)-4-Fluoro-1-(4-fluorophenylsulfonyl)-N-((5-(isopentyloxy)pyridine-3-yl)methyl)pyrrolidine-2-carboxamide]
27 | 4.89 | O=C(NCc1ccc(C(F)(F)F)cc1)[C@@H]1CCCN1S(=O)(=O)c1ccccc1 [Example 17, (S)-1-(Phenylsulfonyl)-N-(4-(trifluoromethyl)benzyl)pyrrolidine-2-carboxamide]
28 | 4.90 | O=C(NCc1ccc(Cl)cc1)[C@@H]1CCCN1S(=O)(=O)c1ccc(F)cc1 [Example 20, (S)-N-(4-chlorobenzyl)-1-(4-fluorophenylsulfonyl)pyrrolidine-2-carboxamide]
29 | 4.90 | O=C(NCc1cc(OCC(F)(F)F)ccn1)[C@@H]1CCCN1S(=O)(=O)c1ccc(F)c(F)c1 [Example 32, (S)-1-(3,4-Difluorophenylsulfonyl)-N-((4-(2,2,2-trifluoroethoxy)pyridin-2-yl)methyl)pyrrolidine-2-carboxamide]
30 | 4.94 | O=C(NCc1ccc(Br)cc1)[C@@H]1CCCN1S(=O)(=O)c1ccc(F)cc1 [Example 37, (S)-N-(4-bromobenzyl)-1-(4-fluorophenylsulfonyl)pyrrolidine-2-carboxamide]
31 | 4.95 | CC(C)(C)COc1cc(CNC(=O)[C@@H]2C[C@@H](F)CN2S(=O)(=O)c2ccc(F)cc2)ccn1 [Example 4, (2S,4R)-4-Fluoro-1-(4-fluorophenylsulfonyl)-N-((2-(neopentyloxy)pyridin-4-yl)methyl)pyrrolidine-2-carboxamide]
32 | 4.98 | CCCC(=O)c1cccc(CNC(=O)[C@@H]2CCCN2S(=O)(=O)c2ccc(F)cc2)c1 [Example 3, (S)-N-(3-butyrylbenzyl)-1-(4-fluorophenylsulfonyl)pyrrolidine-2-carboxamide]
33 | 5.03 | CC(C)CSc1cc(CNC(=O)[C@@H]2CCCN2S(=O)(=O)c2ccc(F)cc2)ccn1 [Example 19, (S)-1-(4-Fluorophenylsulfonyl)-N-((2-(isobutylthio)pyridin-4-yl)methyl)pyrrolidine-2-carboxamide]
34 | 5.03 | CC(C)c1cc(CNC(=O)[C@@H]2CCCN2S(=O)(=O)c2ccccc2)ccc1C#N [Example 35, (S)-N-(4-cyano-3-isopropylbenzyl)-1-(phenylsulfonyl)pyrrolidine-2-carboxamide]
35 | 5.11 | O=C(NCc1cccc(C2CC2)c1)[C@@H]1CCCN1S(=O)(=O)c1ccc(F)cc1 [Example 23, (S)-N-(3-cyclopropylbenzyl)-1-(4-fluorophenylsulfonyl)pyrrolidine-2-carboxamide]
36 | 5.23 | CCOc1cc(F)cc(CNC(=O)[C@@H]2CCCN2S(=O)(=O)c2ccc(F)cc2)c1 [Example 15, (S)-N-(3-ethoxy-5-fluorobenzyl)-1-(4-fluorophenylsulfonyl)pyrrolidine-2-carboxamide]
37 | 5.36 | CCCc1cc(CNC(=O)[C@@H]2CCCN2S(=O)(=O)c2ccccc2)ccc1C#N [Example 11, (S)-N-(4-cyano-3-propylbenzyl)-1-(phenylsulfonyl)pyrrolidine-2-carboxamide]

Source: patent EP2520566A1, “New Pharmaceutical Compounds” (Orion Corporation, priority 2011, dated 2012)
